Test results published in patent US10005803B2, “Crystalline forms of fosnetupitant” (Helsinn Healthcare SA, priority 2015, dated 2018).
Entries after “also recorded” stand apart in the source; their conditions may differ.

Key:
[1] = Procedure: The solubility of the starting compound was determined in 25 pharmaceutically acceptable solvents (class II and III) of differing polarity. The procedure was as follows:
Approximately 20 mg of material was weighed out into each glass vial.
The mixture was stirred at RT for 5-10 minutes. Visual checks were then made for solubility.
If no solubility was achieved then steps (ii) and (iii) were repeated until either the solubility was achieved or the 50 volume aliquots of that solvent were added.
Solubility was then approximated.
Solubility was finally checked at the elevated temperature (40° C.).

[2] = Stability studies at 40° C./75% RH (open vial); type: physicochemical; conditions: 1 week (7 days), checked by XRPD, Raman
Procedure: The polymorphs identified were stored at 40° C./75% RH (open vial). Each sample was put in a glass vial un-capped. Analysis was carried out at 7 days by XRPD and Raman for any potential change in crystalline structure.

[3] = Gravimetric Vapor Sorption (GVS); type: physicochemical; conditions: for Overall moisture uptake: 0% to 90% RH (Form I: % w/w, whole studied RH range up to 90% RH); for Moisture uptake / gradual Wt increase: from 0% to 50% RH; for Hygroscopicity class by GVS: weight increase at 80% RH; for Largest Wt increase: from 70 to 90% RH
Procedure: 1.7.6 Gravimetric Vapor Sorption (GVS)
Approximately 20 mg of sample was placed into a wire-mesh vapor sorption balance pan and loaded into an ‘IgaSorp’ vapor sorption balance (Hiden Analytical Instruments). The sample was then dried by maintaining a 0% humidity environment until no further weight change was recorded. Subsequently, the sample was subjected to a ramping profile from 0-90% RH at 10% RH increments, maintaining the sample at each step until equilibration had been attained (99.5% step completion). Upon reaching equilibration, the % RH within the apparatus was ramped to the next step and the equilibration procedure repeated. After completion of the sorption cycle, the sample was dried using the profile from 85-5% RH at 10% RH increments same procedure. At last, the sample was dried by maintaining a 0% humidity environment until no further weight change was recorded. The weight change during the sorption/desorption cycles were then monitored, allowing the hygroscopic nature of the sample to be determined.

| Compound | Solubility (in words) [1] | Generated form (change in crystalline structure) [2] | Overall moisture uptake [3] | Moisture uptake / gradual Wt increase [3] | Form change detected by GVS ([3]; sorption/desorption cycle 0-90% RH) | Hygroscopicity class by GVS [3] | Loss of weight in absorption process ([3]; at 80% RH) [% w/w] | Largest Wt increase [3] | Sharp Wt increase in absorption ([3]; @10% RH) | Loss of weight in the absorption process ([3]; at 60% RH) [% w/w] | Moisture uptake ([3]; from 0 to 70% RH) | Gradual Wt increases, total ([3]; from 20 to 70% RH) |
| --- | --- | --- | --- | --- | --- | --- | --- | --- | --- | --- | --- | --- |
| Cc1ccccc1-c1cc(N2CC[N+](C)(COP(=O)(O)O)CC2)ncc1N(C)C(=O)C(C)(C)c1cc(C(F)(F)F)cc(C(F)(F)F)c1.Cl.[Cl-] [Form I, 4-(5-(2-(3,5-bis(trifluoromethyl)phenyl)-N,2-dimethylpropanamido)-4-(o-tolyl)pyridin-2-yl)-1-methyl-1-((phosphonooxy)methyl)piperazin-1-ium] | very poor solubility | changes in crystalline structures; also recorded: changed | about 45% | about 5% | No form changes were detected | very hygroscopic (>15%@80% RH) |  |  |  |  |  |  |
| Cc1ccccc1-c1cc(N2CC[N+](C)(COP(=O)(O)O)CC2)ncc1N(C)C(=O)C(C)(C)c1cc(C(F)(F)F)cc(C(F)(F)F)c1.Cl.[Cl-] [Form III, 4-(5-(2-(3,5-bis(trifluoromethyl)phenyl)-N,2-dimethylpropanamido)-4-(o-tolyl)pyridin-2-yl)-1-methyl-1-((phosphonooxy)methyl)piperazin-1-ium] |  | changes in crystalline structures; also recorded: changed | circa 25% | circa 5.19% |  | very hygroscopic (>15%@80% RH) | ~5.82 | circa 8.63 % w/w |  |  |  |  |
| Cc1ccccc1-c1cc(N2CC[N+](C)(COP(=O)(O)O)CC2)ncc1N(C)C(=O)C(C)(C)c1cc(C(F)(F)F)cc(C(F)(F)F)c1.Cl.[Cl-] [Form II, 4-(5-(2-(3,5-bis(trifluoromethyl)phenyl)-N,2-dimethylpropanamido)-4-(o-tolyl)pyridin-2-yl)-1-methyl-1-((phosphonooxy)methyl)piperazin-1-ium] |  | not and No change | circa 12.75% |  |  | hygroscopic (15%>Wt increase>2%%@80% RH) |  | circa 8.63 % w/w | circa 2.92 % w/w | ~0.2 | circa 4.12% | circa 1.2 % w/w |
